Measured values published in PubChem BioAssay (NCI).
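These data come from cells grown in 96-well plates and exposed to compound for 48 hours at five concentrations. At the GI50, growth is halved. TGI is the concentration that stops growth completely.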

Columns and labels:
Test in all cases: growth of human tumour cells (NCI), 48 h
OVCAR-3 ovarian = system: OVCAR-3 ovarian
SK-OV-3 ovarian = system: SK-OV-3 ovarian
786-0 renal = system: 786-0 renal
SF-268 CNS = system: SF-268 CNS
NCI-H460 lung = system: NCI-H460 lung
NCI/ADR-RES ovarian = system: NCI/ADR-RES ovarian
DU-145 prostate = system: DU-145 prostate
U251 CNS = system: U251 CNS
HCT-15 colon = system: HCT-15 colon
HCT-116 colon = system: HCT-116 colon

Row | Compound | GI50 (OVCAR-3 ovarian) | TGI (OVCAR-3 ovarian) | GI50 (SK-OV-3 ovarian) | TGI (SK-OV-3 ovarian) | GI50 (786-0 renal) | TGI (786-0 renal) | GI50 (SF-268 CNS) | TGI (SF-268 CNS) | GI50 (NCI-H460 lung) | TGI (NCI-H460 lung) | GI50 (NCI/ADR-RES ovarian) | TGI (NCI/ADR-RES ovarian) | GI50 (DU-145 prostate) | TGI (DU-145 prostate) | GI50 (U251 CNS) | TGI (U251 CNS) | GI50 (HCT-15 colon) | TGI (HCT-15 colon) | GI50 (HCT-116 colon) | TGI (HCT-116 colon)
1 | O=C(Nc1ccc(Cc2ccccc2)cc1)Nc1nn(C(=O)Nc2ccc(Cc3ccccc3)cc2)c2ccccc12 | > 100 µM | > 100 µM | > 100 µM | > 100 µM | > 100 µM | > 100 µM | 75.6 µM | > 100 µM | > 100 µM | > 100 µM | > 100 µM | > 100 µM | 80 µM | > 100 µM | 70.2 µM | > 100 µM | > 100 µM | > 100 µM | > 100 µM | > 100 µM
2 | CCN1CCC(Nc2ccnc3cc(Cl)ccc23)CC1 | 24.8 µM | > 100 µM | > 100 µM | > 100 µM | 32.4 µM | > 100 µM | 23.6 µM | > 100 µM | 28.7 µM | > 100 µM | 44.8 µM | > 100 µM | 36.5 µM | > 100 µM | 30.5 µM | > 100 µM | 30.1 µM | > 100 µM | 8.82 µM | > 100 µM
3 | COc1cccc(/C=C/C(=O)c2ccc(SC)cc2)c1OC | 16.4 µM | 32 µM | 23.5 µM | 40.6 µM | 14.2 µM | 28.2 µM | 20.2 µM | 42.3 µM | 17.9 µM | 36.2 µM | 16.2 µM | 38.5 µM | 20.4 µM | 40.6 µM | 10.4 µM | 24 µM | 10.4 µM | 30.3 µM | 4.35 µM | 15.4 µM
4 | CCCCOC(=O)c1ccc(N)cc1 | 68 µM | > 100 µM | > 100 µM | > 100 µM | 32.4 µM | > 100 µM | 71.1 µM | > 100 µM | 34.3 µM | > 100 µM | 92.4 µM | > 100 µM | > 100 µM | > 100 µM | > 100 µM | > 100 µM | 8 µM | > 100 µM | 90 µM | > 100 µM
5 | O=c1[nH]c2ccccc2c2nc3ccccc3n12 |  | > 100 µM |  | 49.7 µM |  | > 100 µM |  | > 100 µM |  | > 100 µM |  | > 100 µM |  | > 100 µM |  | > 100 µM |  | > 100 µM |  | > 100 µM
6 | NC(N)=NCC1CCCCCCN1 (stereo not given) |  | > 100 µM |  | > 100 µM |  | > 100 µM |  | > 100 µM |  | > 100 µM |  | > 100 µM |  | > 100 µM |  | > 100 µM |  | > 100 µM |  | > 100 µM
7 | COC(=O)C1=C(O)[C@H](C(=O)OC)C2(O)C(C(=O)OC)[C@H](c3ccc(OC(=O)C(C)c4ccccc4)cc3)C[C@@H]1[C@@H]2C(=O)OC (stereo not given in full) | 9.69 µM | 21.4 µM | 33.3 µM | > 50 µM | 38.9 µM | > 50 µM | 17.2 µM | > 50 µM | 19.4 µM | > 50 µM | > 50 µM | > 50 µM | 20.6 µM | > 50 µM | 27.4 µM | > 50 µM | 18.4 µM | > 50 µM | 17.3 µM | > 50 µM
8 | O=C(O)[C@H](Cc1c[nH]c2ccccc12)N1C(=O)c2ccccc2C1=O |  | > 100 µM |  | > 100 µM |  | > 100 µM |  | > 100 µM |  | > 100 µM |  | > 100 µM |  | > 100 µM |  | > 100 µM |  | > 100 µM |  | > 100 µM
9 | Cc1c(O)c(N=Nc2nc3ccccc3s2)c2ccccc2c1O | 12.3 µM | > 50 µM | 30.1 µM | > 50 µM | > 50 µM | > 50 µM | 18.2 µM | > 50 µM | 28 µM | > 50 µM | 34.3 µM | > 50 µM | 23.4 µM | > 50 µM | 25.5 µM | > 50 µM | 23.3 µM | > 50 µM | 22.6 µM | > 50 µM
10 | O=C1/C(=C/c2ccccc2)CN(C(=O)C(Cl)Cl)C/C1=C\c1ccccc1 | 0.33 µM | 1.06 µM | 1.77 µM | 3.23 µM | 1.38 µM | 2.82 µM | 1.75 µM | 5.2 µM | 1.3 µM | 3.01 µM | 0.452 µM | 4.92 µM | 1.21 µM | 2.47 µM | 0.325 µM | 1.24 µM | 0.248 µM | 0.77 µM | 0.209 µM | 0.527 µM
11 | CC(=O)O[C@H]([C@H](OC(C)=O)[C@H](C)OC(C)=O)[C@@H](/C=C/[C@@H]1CC=CC(=O)O1)OC(C)=O | 17.1 µM | 41.9 µM | > 100 µM | > 100 µM | 90.1 µM | > 100 µM | 28.9 µM | > 100 µM | 42 µM | > 100 µM | > 100 µM | > 100 µM | 37.9 µM | > 100 µM | > 100 µM | > 100 µM | 44.2 µM | > 100 µM | 33.4 µM | > 100 µM
12 | CSc1c(C2=C(c3cn(C)c4ccccc34)C(=O)NC2=O)c2ccccc2n1C | 0.629 µM | 2 µM | 0.833 µM | > 25 µM | 1.19 µM | > 25 µM | 1.51 µM | > 25 µM | 0.832 µM | > 25 µM | 1.02 µM | > 25 µM | 1.13 µM | > 25 µM | 1.23 µM | > 25 µM | 0.755 µM | > 25 µM | 1.04 µM | > 25 µM
13 | NC(=NCc1ccccc1)C(N=Nc1ccccc1)C(=O)NCc1ccccc1 (stereo not given) | 1.93 µM | 3.75 µM | 20.1 µM | 47.7 µM | 12.1 µM | 30 µM | 2.53 µM | 6.44 µM | 2.37 µM | 6.18 µM | 6.46 µM | 23.8 µM | 2.28 µM | 6.01 µM | 5.75 µM | 25.9 µM | 8.19 µM | 67.3 µM | 1.76 µM | 3.47 µM
